Data on 8 molecules can be found in PubChem BioAssay (NCI).

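Five compound concentrations were applied to cells in 96-well plates for 48 hours; endpoints were derived by simple linear interpolation of the resulting dose-response curve. At the GI50, growth is halved. TGI is the concentration that stops growth completely.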 Bounds are passed on as bounds.

Test systems include SK-OV-3 ovarian; MDA-MB-231 breast; SW-620 colon; IGROV1 ovarian; HCC-2998 colon; NCI-H522 lung; SK-MEL-28 melanoma; OVCAR-8 ovarian; M14 melanoma; MCF7 breast.
What all share (assay): DTP human tumour cell line panel, 48 h

The term GI50 denotes the concentration that inhibits growth by half. Usually TGI stands for the concentration at which net growth stops. Higher therefore signals less potent growth arrest. As for `NCCNc1nc2ccc(F)cc2c2c(=O)c3cc(F)ccc3sc12`, the GI50 was 5.44 µM in the assay on SK-OV-3 ovarian; 1.51 µM in the assay with MDA-MB-231 breast; 1.56 µM in the assay on SW-620 colon; 1.04 µM in the assay on IGROV1 ovarian; 1.77 µM in the assay with HCC-2998 colon; 1.73 µM with NCI-H522 lung. The GI50 with SK-MEL-28 melanoma is 2.05 µM; with OVCAR-8 ovarian, 2.06 µM; in the assay with M14 melanoma, 2.77 µM. Further, the TGI in the assay on SK-OV-3 ovarian came out at 20.9 µM; in the assay with MDA-MB-231 breast it was 3.08 µM; in the assay on SW-620 colon it was 3.09 µM; in the assay on IGROV1 ovarian, 2.37 µM; with HCC-2998 colon, 3.44 µM; with NCI-H522 lung, 3.38 µM. Further, the results for the TGI in the assay on SK-MEL-28 melanoma, with OVCAR-8 ovarian and in the assay with M14 melanoma were 4.18 µM, 4.6 µM and 8.65 µM, respectively.
As to `NC1=CC(=O)C(=O)c2ccccc21`, the GI50 is 47.6 µM in the assay with SK-OV-3 ovarian; 13.2 µM in the assay on MCF7 breast; 11 µM in the assay on MDA-MB-231 breast; 17.6 µM in the assay with SW-620 colon; 19.7 µM in the assay on IGROV1 ovarian; 43.9 µM in the assay on HCC-2998 colon. The GI50 was 16.6 µM in the assay on NCI-H522 lung, 8.81 µM in the assay with SK-MEL-28 melanoma, 14.8 µM in the assay on OVCAR-8 ovarian and 9.59 µM with M14 melanoma. Also, the TGI is over 100 µM with SK-OV-3 ovarian; 29.8 µM in the assay on MCF7 breast; 30.9 µM in the assay with MDA-MB-231 breast; 38.4 µM with SW-620 colon; 39.5 µM with IGROV1 ovarian; over 100 µM in the assay with HCC-2998 colon. The TGI in the assay on NCI-H522 lung worked out at 38.2 µM; in the assay with SK-MEL-28 melanoma, 22.3 µM; with OVCAR-8 ovarian it was 47.3 µM; with M14 melanoma, 21.3 µM.
As for `Cn1c(=S)c2[nH]c(SCc3cccnc3)nc2n(C)c1=O`, the TGI with SK-OV-3 ovarian, in the assay on MCF7 breast, in the assay on MDA-MB-231 breast, in the assay on SW-620 colon, in the assay with IGROV1 ovarian and in the assay with HCC-2998 colon was over 100 µM each time. For the same molecule, the TGI with NCI-H522 lung, in the assay with SK-MEL-28 melanoma, in the assay on OVCAR-8 ovarian and in the assay with M14 melanoma was over 100 µM each time.
On to `CCC1C[N+]2=C(c3cc(OC)c(OC)cc3CC2)c2c1cc1n2CCc2cc(OC)c(OC)cc2-1` (centres undefined), for which the GI50 is 5.01 µM in the assay with SK-OV-3 ovarian; 1.25 µM in the assay on MCF7 breast; 2.27 µM with MDA-MB-231 breast; 4.25 µM in the assay with SW-620 colon; 5.62 µM in the assay with IGROV1 ovarian; 2.55 µM with HCC-2998 colon. Besides, the GI50 is 1.81 µM in the assay with NCI-H522 lung, 1.93 µM with SK-MEL-28 melanoma, 2.58 µM in the assay on OVCAR-8 ovarian and 3.66 µM with M14 melanoma. Besides, the TGI stood at 37.5 µM with SK-OV-3 ovarian; 13.3 µM in the assay on MCF7 breast; 8.44 µM with MDA-MB-231 breast; 16.8 µM in the assay on SW-620 colon; 53.6 µM in the assay on IGROV1 ovarian; 12.9 µM in the assay with HCC-2998 colon. The total growth inhibition concentration (TGI) in the assay on NCI-H522 lung was 13.9 µM; in the assay with SK-MEL-28 melanoma it was 10.1 µM; in the assay with OVCAR-8 ovarian, 82.1 µM; in the assay with M14 melanoma, 14.6 µM.
With `COc1ccc(/C=N/C2=NNC(C)(c3ccccc3O)N2C(Cc2c[nH]c3ccccc23)C(=O)O)cc1` (centres undefined), the GI50 in the assay with SK-OV-3 ovarian was 2.85 µM; in the assay on MCF7 breast, 2.23 µM; with MDA-MB-231 breast, 1.89 µM; in the assay with SW-620 colon, 3.17 µM; in the assay on IGROV1 ovarian, 1.72 µM; in the assay on HCC-2998 colon, 3.53 µM. The GI50 in the assay with NCI-H522 lung was 2.49 µM; with SK-MEL-28 melanoma, 2.67 µM; in the assay on OVCAR-8 ovarian, 3.23 µM; in the assay on M14 melanoma it was 2.35 µM. For the same molecule, the TGI amounted to 14.5 µM in the assay with SK-OV-3 ovarian; 10.9 µM with MCF7 breast; 8.89 µM in the assay on MDA-MB-231 breast; 12.1 µM with SW-620 colon; 9.5 µM with IGROV1 ovarian; 13.3 µM in the assay on HCC-2998 colon. Further, the TGI came out at 10 µM with NCI-H522 lung, 8.41 µM in the assay on SK-MEL-28 melanoma, 16 µM in the assay with OVCAR-8 ovarian and 8.77 µM in the assay with M14 melanoma.
For `COc1ccc(OC)c(-c2nc3sc(C)cn3c2/C=C2\C(=O)N(C)c3ccccc32)c1`, the GI50 was 28.4 µM in the assay with SK-OV-3 ovarian; 12.7 µM in the assay on MCF7 breast; 15.3 µM in the assay with MDA-MB-231 breast; 35.6 µM with SW-620 colon; 22 µM in the assay on IGROV1 ovarian; 22 µM with NCI-H522 lung. Also, the GI50 is 19.8 µM in the assay on SK-MEL-28 melanoma, 28.3 µM in the assay with OVCAR-8 ovarian and 25.4 µM in the assay on M14 melanoma. For the same molecule, the TGI in the assay on SK-OV-3 ovarian was 71.4 µM; in the assay with MCF7 breast it was 41.8 µM; with MDA-MB-231 breast it was 66.3 µM; in the assay with SW-620 colon it was over 100 µM; in the assay on IGROV1 ovarian it was 66.5 µM; in the assay on NCI-H522 lung, 59.4 µM. For the same molecule, the TGI is 43.6 µM in the assay on SK-MEL-28 melanoma, over 100 µM with OVCAR-8 ovarian and 80.3 µM in the assay with M14 melanoma.
For the molecule `COc1ccc(C#CC2=C(Br)C(=O)OC2)cc1`, the GI50 in the assay with MCF7 breast was 2.47 µM; in the assay on MDA-MB-231 breast, 9.48 µM; in the assay with SW-620 colon, 1.23 µM; with IGROV1 ovarian it was 26.8 µM; in the assay with NCI-H522 lung, 25.8 µM; in the assay on SK-MEL-28 melanoma it was 5.54 µM. For the same molecule, the GI50 was 9.47 µM in the assay on OVCAR-8 ovarian and 10.5 µM with M14 melanoma. Moreover, the TGI in the assay on MCF7 breast is over 50 µM; in the assay with MDA-MB-231 breast, 27.6 µM; in the assay on SW-620 colon, 4.54 µM; in the assay with IGROV1 ovarian, over 50 µM; in the assay with NCI-H522 lung, over 50 µM; in the assay on SK-MEL-28 melanoma it was 23.3 µM. The TGI in the assay on OVCAR-8 ovarian came out at 39 µM; in the assay with M14 melanoma, 34 µM.
Consider `CCSc1nnc(-c2ccc3ccccc3c2O)n1-c1ccccc1`, for which the GI50 with SK-OV-3 ovarian was over 100 µM; in the assay on MDA-MB-231 breast, over 100 µM; in the assay with IGROV1 ovarian it was 7.59 µM; in the assay with HCC-2998 colon, over 100 µM; in the assay with NCI-H522 lung, 4.27 µM; in the assay with SK-MEL-28 melanoma, over 100 µM. In addition, the TGI in the assay with SK-OV-3 ovarian, in the assay on MDA-MB-231 breast, in the assay with IGROV1 ovarian, with HCC-2998 colon, in the assay with NCI-H522 lung and in the assay with SK-MEL-28 melanoma was over 100 µM throughout.
